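Growth conditions: 96-well plates. Treatment: test compound, 48 hours, 5 concentrations. Analysis: linear interpolation between bracketing concentrations; unreached endpoints set to highest concentration. Definition used: TGI = concentration required for complete inhibition of growth.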
How the values were obtained:
Assay in all cases: growth of human tumour cells (NCI), 48 h
786-0 renal = tested on: 786-0 renal
A498 renal = tested on: A498 renal
A549 NSCLC = tested on: A549 NSCLC
ACHN renal = tested on: ACHN renal
BT-549 breast = tested on: BT-549 breast
CAKI-1 renal = tested on: CAKI-1 renal
CCRF-CEM leukemia = tested on: CCRF-CEM leukemia
COLO 205 colon = tested on: COLO 205 colon
DU-145 prostate = tested on: DU-145 prostate
EKVX NSCLC = tested on: EKVX NSCLC
HCC-2998 colon = tested on: HCC-2998 colon
HCT-116 colon = tested on: HCT-116 colon
HCT-15 colon = tested on: HCT-15 colon
HL-60(TB) leukemia = tested on: HL-60(TB) leukemia
HOP-62 NSCLC = tested on: HOP-62 NSCLC
HOP-92 NSCLC = tested on: HOP-92 NSCLC
HS 578T breast = tested on: HS 578T breast
HT29 colon = tested on: HT29 colon
IGROV1 ovarian = tested on: IGROV1 ovarian
K-562 leukemia = tested on: K-562 leukemia
KM12 colon = tested on: KM12 colon
LOX IMVI melanoma = tested on: LOX IMVI melanoma
M14 melanoma = tested on: M14 melanoma
MALME-3M melanoma = tested on: MALME-3M melanoma
MCF7 breast = tested on: MCF7 breast
MDA-MB-231 breast = tested on: MDA-MB-231 breast
MDA-MB-435 = tested on: MDA-MB-435
MDA-N = tested on: MDA-N
MOLT-4 leukemia = tested on: MOLT-4 leukemia
NCI-H226 lung = tested on: NCI-H226 lung
NCI-H23 lung = tested on: NCI-H23 lung
NCI-H460 lung = tested on: NCI-H460 lung
NCI-H522 lung = tested on: NCI-H522 lung
NCI/ADR-RES ovarian = tested on: NCI/ADR-RES ovarian
OVCAR-3 ovarian = tested on: OVCAR-3 ovarian
OVCAR-4 ovarian = tested on: OVCAR-4 ovarian
OVCAR-5 ovarian = tested on: OVCAR-5 ovarian
OVCAR-8 ovarian = tested on: OVCAR-8 ovarian
PC-3 prostate = tested on: PC-3 prostate
RPMI-8226 leukemia = tested on: RPMI-8226 leukemia
RXF 393 renal = tested on: RXF 393 renal
SF-268 CNS = tested on: SF-268 CNS
SF-295 CNS = tested on: SF-295 CNS
SF-539 CNS = tested on: SF-539 CNS
SK-MEL-2 melanoma = tested on: SK-MEL-2 melanoma
SK-MEL-28 melanoma = tested on: SK-MEL-28 melanoma
SK-MEL-5 melanoma = tested on: SK-MEL-5 melanoma
SK-OV-3 ovarian = tested on: SK-OV-3 ovarian
SN12C renal = tested on: SN12C renal
SNB-19 CNS = tested on: SNB-19 CNS
SNB-75 CNS = tested on: SNB-75 CNS
SR leukemia = tested on: SR leukemia
SW-620 colon = tested on: SW-620 colon
T-47D breast = tested on: T-47D breast
TK-10 renal = tested on: TK-10 renal
U251 CNS = tested on: U251 CNS
UACC-257 melanoma = tested on: UACC-257 melanoma
UACC-62 melanoma = tested on: UACC-62 melanoma
UO-31 renal = tested on: UO-31 renal

COc1ccc(OC)c(CCc2cc(OC)ccc2OC)c1
TGI (786-0 renal): > 10 µM
TGI (A498 renal): > 10 µM
TGI (A549 NSCLC): > 10 µM
TGI (ACHN renal): > 10 µM
TGI (BT-549 breast): > 10 µM
TGI (CAKI-1 renal): > 10 µM
TGI (CCRF-CEM leukemia): > 10 µM
TGI (COLO 205 colon): 4.88 µM
TGI (DU-145 prostate): > 10 µM
TGI (EKVX NSCLC): > 10 µM
TGI (HCC-2998 colon): > 10 µM
TGI (HCT-116 colon): > 10 µM
TGI (HCT-15 colon): > 10 µM
TGI (HL-60(TB) leukemia): 5.28 µM
TGI (HOP-62 NSCLC): > 10 µM
TGI (HOP-92 NSCLC): > 10 µM
TGI (HS 578T breast): 7.29 µM
TGI (HT29 colon): > 10 µM
TGI (IGROV1 ovarian): > 10 µM
TGI (K-562 leukemia): > 10 µM
TGI (KM12 colon): > 10 µM
TGI (LOX IMVI melanoma): > 10 µM
TGI (M14 melanoma): > 10 µM
TGI (MALME-3M melanoma): > 6.95 µM
TGI (MCF7 breast): > 10 µM
TGI (MDA-MB-231 breast): > 10 µM
TGI (MDA-MB-435): 0.49 µM
TGI (MDA-N): 1.64 µM
TGI (MOLT-4 leukemia): > 10 µM
TGI (NCI-H226 lung): > 10 µM
TGI (NCI-H23 lung): > 10 µM
TGI (NCI-H460 lung): > 10 µM
TGI (NCI-H522 lung): > 9.66 µM
TGI (NCI/ADR-RES ovarian): > 6.02 µM
TGI (OVCAR-3 ovarian): 2.09 µM
TGI (OVCAR-4 ovarian): > 10 µM
TGI (OVCAR-5 ovarian): > 10 µM
TGI (OVCAR-8 ovarian): > 10 µM
TGI (PC-3 prostate): > 10 µM
TGI (RPMI-8226 leukemia): > 10 µM
TGI (RXF 393 renal): > 8.51 µM
TGI (SF-268 CNS): > 10 µM
TGI (SF-295 CNS): > 7.31 µM
TGI (SF-539 CNS): 4.76 µM
TGI (SK-MEL-2 melanoma): > 8.88 µM
TGI (SK-MEL-28 melanoma): > 10 µM
TGI (SK-MEL-5 melanoma): > 9.35 µM
TGI (SK-OV-3 ovarian): > 10 µM
TGI (SN12C renal): > 10 µM
TGI (SNB-19 CNS): > 10 µM
TGI (SNB-75 CNS): 9.07 µM
TGI (SR leukemia): > 10 µM
TGI (SW-620 colon): > 10 µM
TGI (T-47D breast): > 10 µM
TGI (TK-10 renal): > 10 µM
TGI (U251 CNS): > 10 µM
TGI (UACC-257 melanoma): > 10 µM
TGI (UACC-62 melanoma): > 10 µM
TGI (UO-31 renal): > 10 µM

CCCCC(=O)Nc1ccc2cc(C(=O)OC)c(Cl)nc2n1
TGI (786-0 renal): > 100 µM
TGI (A498 renal): > 100 µM
TGI (A549 NSCLC): > 100 µM
TGI (ACHN renal): > 100 µM
TGI (BT-549 breast): > 100 µM
TGI (CAKI-1 renal): > 100 µM
TGI (CCRF-CEM leukemia): > 100 µM
TGI (COLO 205 colon): > 45.3 µM
TGI (DU-145 prostate): 10.1 µM
TGI (EKVX NSCLC): > 100 µM
TGI (HCC-2998 colon): 52.7 µM
TGI (HCT-116 colon): > 100 µM
TGI (HCT-15 colon): > 100 µM
TGI (HL-60(TB) leukemia): 6.81 µM
TGI (HOP-62 NSCLC): 20.6 µM
TGI (HOP-92 NSCLC): > 100 µM
TGI (HS 578T breast): 46.9 µM
TGI (HT29 colon): > 100 µM
TGI (IGROV1 ovarian): > 100 µM
TGI (K-562 leukemia): > 100 µM
TGI (KM12 colon): 10.1 µM
TGI (LOX IMVI melanoma): > 100 µM
TGI (M14 melanoma): > 100 µM
TGI (MALME-3M melanoma): > 100 µM
TGI (MCF7 breast): > 100 µM
TGI (MDA-MB-231 breast): > 100 µM
TGI (MDA-MB-435): > 100 µM
TGI (MDA-N): > 100 µM
TGI (MOLT-4 leukemia): > 100 µM
TGI (NCI-H226 lung): > 100 µM
TGI (NCI-H23 lung): > 100 µM
TGI (NCI-H460 lung): > 100 µM
TGI (NCI-H522 lung): > 100 µM
TGI (NCI/ADR-RES ovarian): > 100 µM
TGI (OVCAR-3 ovarian): 17.6 µM
TGI (OVCAR-4 ovarian): > 100 µM
TGI (OVCAR-5 ovarian): > 100 µM
TGI (OVCAR-8 ovarian): > 100 µM
TGI (PC-3 prostate): > 74.3 µM
TGI (RPMI-8226 leukemia): > 100 µM
TGI (RXF 393 renal): > 100 µM
TGI (SF-268 CNS): > 100 µM
TGI (SF-295 CNS): > 96.7 µM
TGI (SF-539 CNS): > 100 µM
TGI (SK-MEL-2 melanoma): > 100 µM
TGI (SK-MEL-28 melanoma): > 100 µM
TGI (SK-MEL-5 melanoma): > 100 µM
TGI (SK-OV-3 ovarian): > 100 µM
TGI (SN12C renal): > 100 µM
TGI (SNB-19 CNS): 38 µM
TGI (SNB-75 CNS): > 100 µM
TGI (SR leukemia): > 100 µM
TGI (SW-620 colon): > 100 µM
TGI (T-47D breast): > 72.5 µM
TGI (TK-10 renal): > 100 µM
TGI (U251 CNS): > 78 µM
TGI (UACC-257 melanoma): > 100 µM
TGI (UACC-62 melanoma): > 100 µM
TGI (UO-31 renal): 57.7 µM
